Assay [1] has as its system Klebsiella pneumoniae. Kind of assay: Antimicrobial activity against blaKPC-possessing Klebsiella pneumoniae isolates assessed as susceptible isolates by agar dilution method. Format: functional. Background: In agar dilution the substance is mixed into plates at graded concentrations.
In assay [2] the test system is Klebsiella pneumoniae. The assay is described as follows: Antimicrobial activity against blaKPC-possessing Klebsiella pneumoniae isolates in presence of 4 ug/ml by agar dilution method. Format: functional.
The test system of assay [3] is Klebsiella pneumoniae. Kind of assay: Antimicrobial activity against blaKPC-possessing Klebsiella pneumoniae isolates assessed as susceptible isolates in presence of 4 ug/ml by agar dilution method. Format: functional.
For assay [4], the system named is Klebsiella pneumoniae. Kind of assay: Inhibition of Beta-lactamase KPC-2 in Klebsiella pneumoniae isolates assessed as reduction in antimicrobial MIC of beta-lactams by agar dilution method relative to untreated control.
Assay [5] has as its system Klebsiella pneumoniae. Kind of assay: Antimicrobial activity against blaKPC-possessing Klebsiella pneumoniae isolates by agar dilution method. Format: functional.

Converted amounts (≈) assume the structure as drawn. The source made the active and inactive calls. The calls are words filed in the database; no cut-off is given here. Where only a bound is given, the exact number is not on record here.

Broadly, the MIC50 is an inhibitory concentration at the 50% level, which refers to growth in some studies and to a panel of isolates in others. The MIC90 is the lowest concentration that inhibits either 90% of growth or 90% of the strains tested, depending on the study. On to `CO/N=C(\C(=O)N[C@@H]1C(=O)N2C(C(=O)[O-])=C(C[N+]3(C)CCCC3)CS[C@H]12)c1csc(N)n1` [CEFEPIME], for which the Activity in the assay on Klebsiella pneumoniae [1] stood at 7.1%; in the assay with Klebsiella pneumoniae [3], 88.1%. The values for the MIC50 in the assay with Klebsiella pneumoniae [2] and with Klebsiella pneumoniae [5] were 2 µg/mL and 32 µg/mL (≈ 66.6 µM), respectively. The MIC90 in the assay on Klebsiella pneumoniae [2] amounted to 16 µg/mL; in the assay on Klebsiella pneumoniae [5], 128 µg/mL (≈ 266 µM). In the assay on Klebsiella pneumoniae [4], the “Reduction in beta-lactam MIC (qualitative call)” value (shortened to “Reduction in beta-lactam MIC”) was “Active”.

For the compound `CO/N=C(\C(=O)N[C@@H]1C(=O)N2C(C(=O)O)=C(COC(C)=O)CS[C@H]12)c1csc(N)n1` [CEFOTAXIME], the Activity was found to be 0% in the assay with Klebsiella pneumoniae [1] and 38.1% with Klebsiella pneumoniae [3]. In addition, the MIC50 with Klebsiella pneumoniae [2] worked out at 2 µg/mL; with Klebsiella pneumoniae [5], 64 µg/mL (≈ 141 µM). The results for the MIC90 in the assay on Klebsiella pneumoniae [2] and in the assay with Klebsiella pneumoniae [5] were 4 µg/mL and no less than 512 µg/mL, respectively. For the same compound, the “Reduction in beta-lactam MIC” value in the assay with Klebsiella pneumoniae [4] was “Active”.

Regarding `C[C@H]1[C@H](NC(=O)/C(=N\OC(C)(C)C(=O)O)c2csc(N)n2)C(=O)N1S(=O)(=O)O` [AZTREONAM], the values for the Activity in the assay with Klebsiella pneumoniae [1] and with Klebsiella pneumoniae [3] were 0% and 14.3%, respectively. Moreover, the MIC50 in the assay with Klebsiella pneumoniae [2] is 16 µg/mL; against Klebsiella pneumoniae [5], no less than 512 µg/mL. Further, the MIC90 was 128 µg/mL with Klebsiella pneumoniae [2] and no less than 512 µg/mL against Klebsiella pneumoniae [5]. For the same compound, the inhibition entry in the assay with Klebsiella pneumoniae [4] is “Active”.

Turning to `CCN1CCN(C(=O)N[C@@H](C(=O)N[C@@H]2C(=O)N3[C@@H]2SC(C)(C)[C@@H]3C(=O)O)c2ccccc2)C(=O)C1=O` [PIPERACILLIN], the results for the Activity in the assay on Klebsiella pneumoniae [1] and in the assay with Klebsiella pneumoniae [3] were 0% and 16.7%, respectively. In addition, the MIC50 in the assay with Klebsiella pneumoniae [2] is 64 µg/mL; against Klebsiella pneumoniae [5] it was no less than 512 µg/mL. The MIC90 was 128 µg/mL in the assay with Klebsiella pneumoniae [2] and no less than 512 µg/mL in the assay with Klebsiella pneumoniae [5]. Besides, in the assay on Klebsiella pneumoniae [4], the “Reduction in beta-lactam MIC” value is “Active”.

The values above are taken from ChEMBL document CHEMBL1255415, “In vitro activity of penem-1 in combination with beta-lactams against blaKPC-possessing Klebsiella pneumoniae isolates” (2010).
